Assay results published in US10821123B2, “Use of ribose for treatment of subjects having congestive heart failure” (priority 2016, dated 2020).

What was measured:
[1] = system: patients with NYHA Class II to IV heart failure; assay: Functional improvement in patients with NYHA Class II to IV heart failure taking D-ribose; assay type: in vivo, human; conditions: 10 to 50 g oral once daily fasted
Protocol: (§1) Oral D-ribose powder for solution is administered at a dose of 10 to 50 grams per dose, once daily, fasted (e.g., 3 hours, 4, hours, 5 hours, 6 hours, 7 hours, 8 hours, 9 hours, 10 hours, 11 hours, 12 hours, or more). D-ribose powder for solution is dissolved in 50 to 250 mL of water or clear beverage and is consumed within a 15 to 60 minute period. It is preferred that D-ribose be administered to patients that are fasted. Patients are administered D-ribose for a period of at least two weeks, but possibly for the remainder of their lives.

[2] = system: patients with acute decompensated heart failure; assay: Dyspnea and/or edema in patients hospitalized for acutely decompensated heart failure; assay type: in vivo, human; conditions: 10 to 50 g oral once daily fasted
Protocol: Patients admitted to the hospital for acute decompensated heart failure may be given oral D-ribose powder for solution at a dose of 10 to 50 grams per dose, once daily, fasted (e.g., 3 hours, 4, hours, 5 hours, 6 hours, 7 hours, 8 hours, 9 hours, 10 hours, 11 hours, 12 hours, or more). D-ribose powder for solution is dissolved in 50 to 250 mL (preferably 50 mL in this case) of water or clear beverage and consumed within a 15 to 60 minute period. It is preferred that D-ribose be administered to patients that are fasted. Patients are treated until symptoms of dyspnea and fluid overload have stabilized.

[3] = system: patients with NYHA Class II to IV heart failure; assay: Remodeling effects in patients with NYHA Class II to IV heart failure taking D-ribose; assay type: in vivo, human; conditions: 10 to 50 g oral once daily fasted, within 3 months to one year
Protocol: as §1, with “and” for “and is”, “administered” for “administered to patients that are”, “weeks” for “weeks,”, “lives. Within a period of 3 months to one year, in at least some embodiments, patients taking D-ribose may have a lower Left Ventricular Systolic Volume Index ([…]), a lower Left Ventricular Diastolic Volume Index ([…]), higher Ejection Fractions (EF), higher dP/dtmax values, lower dP/dtmin values, and/or higher cardiac output than patients taking placebo.” for “lives.”

[4] = system: dogs with pacing-induced heart failure; assay: Canine model of heart failure induced by chronic cardiac pacing, longevity; assay type: in vivo
From the text: It has been shown that administration of D-ribose can improve cardiac function in animal models of heart failure. […] Animals treated with once daily, oral D-ribose at a weight equivalent dose of 10 g in a 70 kg human lived 40% longer than placebo animals. It has been hypothesized that D-ribose helps retain cardiac function by maintaining the adenylate pool in cardiomyocytes that are overworked due to underlying heart disease. Supplemental D-ribose can bypass the cell's need to synthesize D-ribose via the pentose phosphate shunt, which can be a rate limiting step to synthesis of ATP in cardiomyocytes by either the salvage or de novo pathways. It has been shown in several studies that D-ribose can enhance the rate of recovery of ATP and other constituents of the adenylate pool in the hearts of animals subjected to hypoxic stress. However, there may be additional benefits to D-ribose treatment in subjects suffering from diminished mitochondrial function in disease states such as coronary artery disease, ischemic heart disease, dilated cardiomyopathy, or other conditions leading to heart failure.
Dogs were surgically implanted with a cardiac pacing device used to induce heart failure through chronic cardiac pacing. In addition, an aortic catheter, coronary sinus catheter (for blood sampling), left ventricular catheter and pressure transducer, left ventricular piezoelectric crystals, and a transonic flow probe in the left circumflex coronary artery were implanted to measure a variety of hemodynamic parameters and to sample coronary venous blood. Subsequent to recovery from surgery, animals were paced for 3 weeks at a rate of 210 beats per minute (bpm) followed by an increased rate of 350 bpm which continued until the animals were deemed to be terminal. Hemodynamic and metabolic measurements were made on a scheduled basis throughout the pacing period. Dogs were treated with 150 mg/kg D-ribose solution orally either once daily (fasted) or three times daily. Placebo dogs were given an equivalent volume of water. D-ribose treatment started 10 days following the start of pacing and continued until the animal was deemed to be terminal. […] However, one significant difference was how long the D-ribose treated animals lived. Dogs treated once daily lived an average of 38.3 days versus 27.3 days for placebo animals (p<0.03). Furthermore, although the group of dogs treated three times daily (tid) with D-ribose consisted of fewer animals than the group of dogs treated once daily, the tid group lived on average 30.5 days, which was not statistically different than placebo animals (p>0.20). […]

[5] = healthy subjects, oral; cited from earlier work
[6] = Safety, tolerability and pharmacokinetics of multiple oral doses of D-ribose solution in subjects with stable chronic heart failure; assay type: in vivo, human
Protocol: Although a morning oral dose of D-ribose (overnight fasting) produced significant blood plasma levels, the mid-day and evening doses produced diminished blood levels similar to that observed in healthy subjects given food immediately prior to dosing, even though D-ribose administration to subjects with stable congestive heart failure occurred over 2 hours after their previous meal.
The safety, tolerability, pharmacokinetics and pharmacodynamics of multiple oral doses of D-ribose solution was studied in 14 subjects with stable, chronic heart failure. It is well known that bolus oral D-ribose can induce a dose-dependent transient hypoglycemia that is preceeded by a transient spike in insulin levels. This can result in symptomatic hypoglycemia in subjects whose blood glucose levels fall sufficiently far. This transient hypoglycemia is the dose limiting side effect of D-ribose treatment, although it is readily overcome by drinking a glass of fruit juice. For this reason, subjects were initially administered a 10 g dose, fasted, followed 5 hours later by a 5 g dose at least 2.5 hours after the end of the previous meal. Subjects that tolerated the 10 g dose completed the remainder of the study at the 10 g dose. […] All subjects tolerated the 10 g dose, so the remainder of the study was conducted using the 10 g dose only. For the next two days, subjects were administered 10 g of D-ribose solution three times daily at 5 hour intervals beginning with a fasted morning dose around 7 a.m. Meals were served two hours after each dose such that the second and third daily doses were administered approximately 2.5 hours after completion of the previous meal. On the third day of dosing, subjects were administered a single dose of chewable tablets containing 16 g of glucose at 0, 30, and 60 minutes post-dose according to a predefined randomization schedule. The purpose of this was to determine whether glucose could attenuate any symptomatic hypoglycemia (if observed), or if it would impact the rate or extent of D-ribose absorption into the blood. Blood levels of D-ribose and insulin were determined at pre-defined time points throughout the study. Blood glucose levels were monitored continuously throughout the study. Four major outcomes emerged from this study. […] This phenomenon was not observed in normal subjects and appears unique to heart failure patients. Lastly, supplemental glucose administered between 0 and 60 minutes post-dose had no effect on D-ribose absorption into the blood.

[7] = system: mice with chronic pressure overload (ascending aortic constriction); assay: Mouse model of chronic pressure overload (ascending aortic constriction), myocardial remodeling; assay type: in vivo
From the text: This remodeling effect was manifested by lower left ventricular dimensions, lower ventricular wall thicknesses, and greater fractional shortening values compared to untreated controls. […] The study consisted of two ribose treated groups (high and low dose) with the high dose treated group responding better than the low dose group compared to untreated controls. The high dose provided D-ribose exposures that were 4-fold greater than observed in the low dose group providing evidence of a dose effect. The once daily, subcutaneous administration of D-ribose was intended to mimic once daily oral dosing in humans. […] Mice were subjected to ascending aortic constriction (AAC) leading to LV hypertrophy followed by severe LV systolic dysfunction and associated heart failure. In this situation, mitochondrial ATP synthesis is reduced and ROS production is increased in association with advancing heart failure. Reduced ATP levels can contribute to progressive loss of cardiac function from increasing energy deficit. Increased ROS can result in oxidation of critical enzymes and a diminished reducing environment, leading to apoptosis and fibrosis, which are aspects of cardiac remodeling. Mice were divided into four groups; Sham controls (same thoracic surgery with no constriction), AAC untreated, and AAC D-ribose treated (high and low dose). D-ribose for injection (5% to 50% weight/volume) was administered at a dose of 25 to 500 mg/kg body weight by subcutaneous or intraperitoneal injection one to four times daily. After initiation of D-ribose treatment, animals in all groups were monitored for progressive heart failure using echocardiography. LV volumes, fractional shortening, and LV wall thicknesses were measured at 10 and 15 weeks. When LV dilation and fractional shortening were sufficiently advanced, animals were subjected to physical function testing using a motorized treadmill. Animals were allowed to recover for one week and their hearts were harvested and evaluated histologically for myocyte hypertrophy and fibrosis.

[8] = high dose AAC D-ribose treated vs AAC control mice, p<0.05
[9] = low dose AAC D-ribose treated vs AAC controls, not statistically significant

For `O=C[C@H](O)[C@H](O)[C@H](O)CO` [D-ribose], the “sub-maximal (Six Minute Walk Test) or maximal (CPX) exercise capacity” value [1] was “may exhibit improved sub-maximal exercise capacity”, the “assessments of fatigue, dyspnea, edema, Global Clinical Status and other outcomes” value ([1]; within 3 months to one year, vs patients not taking D-ribose) was “may show improved assessments” and the “symptoms of dyspnea vs patients taking diuretics only” value [2] was “may exhibit reduced symptoms of dyspnea within a significantly shorter timeframe”. For the same molecule, the “LVESVI, LVEDVI, EF, dP/dtmax, dP/dtmin, cardiac output vs placebo” value [3] was “may have a lower Left Ventricular Systolic Volume Index (LVESVI)”, the “hemodynamics or other metabolic measures vs placebo” value ([4]; 150 mg/kg oral D-ribose treated dogs) was “no significant differences” and the average survival time ([4]; 150 mg/kg oral once daily (fasted), p<0.03 vs placebo (27.3 days)) was 38.3 days. For the same molecule, the average survival time ([4]; 150 mg/kg oral three times daily (tid), p>0.20 vs placebo, not statistically different) was 30.5 days, the “longer life than placebo animals” value ([4]; once daily oral dose equivalent to 10 g in a 70 kg human) was 40% and the “absorption relative to metabolism” value [5] was “absorbed faster than it is metabolized”. For the same molecule, the “blood levels after administration immediately following meals vs after fasting” value [5] was “greatly reduced”, the “dose proportionality of blood levels” value [5] was “increase more than proportionally with increasing dose” and the “episodes of symptomatic hypoglycemia” value ([6]; 10 g bolus oral dose, even with fasted doses) was “no episodes of symptomatic hypoglycemia”. For the same molecule, the tolerability ([6]; 10 g bolus oral dose, subjects with stable chronic heart failure) was “well tolerated”, the “effect of supplemental glucose on D-ribose absorption into the blood” value ([6]; 16 g glucose chewable tablets at 0, 30 or 60 minutes post-dose) was “no effect” and the “share of non-fasted doses with blood levels less than 15% of a 10 g fasted dose” value ([6]; oral 10 g mid-day and evening doses) was 30%. The “blood levels from mid-day and evening doses relative to 10 g fasted morning dose” value ([6]; oral 10 g, approximately 2.5 hours after previous meal) was “roughly 40%”, the “mean blood level exposure of mid-day 5 g dose, lower than 10 g fasted morning dose” value ([6]; oral, 5 g mid-day dose at least 2.5 hours after previous meal vs 10 g fasted morning dose) was 30 fold and the heart weights ([7]; D-ribose treated animals vs untreated controls) was “heart weights were greater in untreated controls than D-ribose treated animals”. For the same molecule, the “fibrosis by differential staining (tissue sections)” value [7, 8] was “significantly less fibrosis”, the “myocyte diameters (tissue sections)” value [7, 8] was “significantly smaller” and the “left ventricular fractional shortening (echocardiography)” value ([7]; high dose AAC D-ribose treated vs AAC controls, p<0.01) was “significantly lower degree of remodeling”. For the same molecule, the “left ventricular dimensions (echocardiography)” value ([7]; high dose AAC D-ribose treated vs AAC controls, p<0.01 at systole, p=0.01 at diastole) was “significantly lower degree of remodeling”, the “total wall thickness (echocardiography)” value ([7]; high dose AAC D-ribose treated vs AAC controls, p<0.03) was “significantly lower degree of remodeling” and the “left ventricular dimensions (echocardiography)” value [7, 9] was “numerical improvements”. For the same molecule, the “left ventricular fractional shortening (echocardiography)” value [7, 9] was “numerical improvements”, the “total wall thickness (echocardiography)” value ([7]; low dose AAC D-ribose treated vs AAC controls, p<0.04) was “statistically significant” and the “D-ribose exposure, high dose relative to low dose group” value ([7]; mice, once daily subcutaneous dose) was 4 fold.
